{"source": "patent US6627202B2", "about": "“HBV core antigen particles with multiple immunogenic components attached via peptide ligands” (Biogen, Inc., priority 1998, dated 2003)", "key": {"[1]": {"target": "binding of L HBsAg to HBV core antigen (Hepatitis B virus genotype D subtype adw, UniProt P03147)", "sequence (P03147 3-183)": "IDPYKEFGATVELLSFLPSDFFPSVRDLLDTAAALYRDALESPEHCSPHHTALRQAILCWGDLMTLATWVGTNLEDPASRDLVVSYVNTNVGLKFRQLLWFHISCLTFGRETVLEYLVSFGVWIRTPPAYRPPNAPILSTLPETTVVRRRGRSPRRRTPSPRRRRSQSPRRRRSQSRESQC", "details": "N/D represents no observable inhibition; read-out: IC50 μM, concentration of peptide required to inhibit binding of L HBsAg to HBV core antigen at a half maximal level; cited from earlier work"}, "[2]": {"target": "HBV core antigen (Hepatitis B virus genotype D subtype adw, UniProt P03147)", "sequence (P03147 3-183)": "as above", "details": "fd fusion phage carrying the peptide sequence in the amino terminal region of gpIII; in solution, phage associated form; read-out: KD^Rel (nM) relative dissociation constant; cited from earlier work"}, "[3]": {"assay": "storage stability of HBV core antigen preparations", "type": "physicochemical", "details": "4° C., sucrose gradient fractions in TBS, sucrose (20%), NaN3 (0.02%)", "procedure": "Expression of either HBV core antigen (aa3-183) or C-terminally truncated HBV core antigen aa3-148) in E.coli and purification were performed as described in Dyson and Murray (1995). Protein preparations were stored at 4° C. as sucrose gradient fractions in a buffer containing TBS, sucrose (20%) and NaN3 (0.02%)."}}, "note": "Several values for one entry are separate records, joined by “and”; a condition that tells them apart may be missing. Equal entries are not always repeated. Non-standard residues stand in square brackets, D forms with d. No end group written: not given here. βAla = NCCC(=O)O"}
{"molecule": "ACSLLGRMKG", "values": [{"measurement": "IC50", "setting": "[1]", "result": "26.2 ± 5", "unit": "µM"}]}
{"molecule": "ADGAHRSLLGRMKGA", "values": [{"measurement": "Kd", "setting": "[2]", "result": "0.94 ± 0.12", "unit": "nM"}]}
{"molecule": "ADGALLGRMKPA", "values": [{"measurement": "Kd", "setting": "[2]", "result": "767 ± 8", "unit": "nM"}]}
{"molecule": "ADGALLGRMKRA", "values": [{"measurement": "Kd", "setting": "[2]", "result": "181 ± 12", "unit": "nM"}]}
{"molecule": "ADGHRSSLLGRMKGA", "values": [{"measurement": "Kd", "setting": "[2]", "result": "1.4 ± 0.13", "unit": "nM"}]}
{"molecule": "ADGPRSSLLGRMKGA", "values": [{"measurement": "Kd", "setting": "[2]", "result": "0.84 ± 0.07", "unit": "nM"}]}
{"molecule": "ADGSLLGRMKGAAG", "values": [{"measurement": "IC50", "setting": "[1]", "result": "4.5 ± 0.8", "unit": "µM"}]}
{"molecule": "ADGSLLGRMKPA", "values": [{"measurement": "Kd", "setting": "[2]", "result": "322 ± 50", "unit": "nM"}]}
{"molecule": "ADGSRSSLLGRMKGA", "values": [{"measurement": "Kd", "setting": "[2]", "result": "1.96 ± 0.32", "unit": "nM"}]}
{"molecule": "ADGTLLGRMKLA", "values": [{"measurement": "Kd", "setting": "[2]", "result": "20 ± 2", "unit": "nM"}]}
{"molecule": "ADGTQRSLLGRMKGA", "values": [{"measurement": "Kd", "setting": "[2]", "result": "0.84 ± 0.06", "unit": "nM"}]}
{"molecule": "ADGYQRSLLGRMKGA", "values": [{"measurement": "Kd", "setting": "[2]", "result": "0.88 ± 0.08", "unit": "nM"}]}
{"molecule": "ADRSLLGRMKGA", "values": [{"measurement": "Kd", "setting": "[2]", "result": "1.09 ± 0.02", "unit": "nM"}]}
{"molecule": "ALLGRMKG", "values": [{"measurement": "IC50", "setting": "[1]", "result": "10 µM and 11 µM"}]}
{"molecule": "CLLGRMKC", "values": [{"measurement": "IC50", "setting": "[1]", "result": "652 ± 74", "unit": "µM"}]}
{"molecule": "DGSLLGRMKGAA", "values": [{"measurement": "IC50", "setting": "[1]", "result": "3 ± 0.4", "unit": "µM"}]}
{"molecule": "HRSLLGRMKGA", "values": [{"measurement": "IC50", "setting": "[1]", "result": "0.5 ± 0.04", "unit": "µM"}]}
{"molecule": "LGRMKG", "values": [{"measurement": "IC50", "setting": "[1]", "result": "980 ± 157", "unit": "µM"}]}
{"molecule": "LLGRMKG", "values": [{"measurement": "IC50", "setting": "[1]", "result": "46.2 ± 7.4", "unit": "µM"}]}
{"molecule": "MHRSLLGRMKGA", "values": [{"measurement": "IC50", "setting": "[1]", "result": "0.8 ± 0.1", "unit": "µM"}]}
{"molecule": "MHRSLLGRMKGAG(β-A)GC", "values": [{"measurement": "IC50", "setting": "[1]", "result": "3.8 ± 0.69", "unit": "µM"}]}
{"molecule": "RSLLGRMKGA", "values": [{"measurement": "IC50", "setting": "[1]", "result": "0.29 ± 0.02", "unit": "µM"}]}
{"molecule": "RSLLGRMKGA(β-A)C (RSLLGRMKGA[βAla]C)", "values": [{"measurement": "IC50", "setting": "[1]", "result": "0.29 ± 0.03", "unit": "µM"}]}
{"molecule": "SLLGRMK", "values": [{"measurement": "IC50", "setting": "[1]", "result": "40.7 ± 4.8", "unit": "µM"}]}
{"molecule": "SLLGRMKG", "values": [{"measurement": "IC50", "setting": "[1]", "result": "6.4 ± 0.7", "unit": "µM"}]}
{"molecule": "SLLGRMKG(β-A)C (SLLGRMKG[βAla]C)", "values": [{"measurement": "IC50", "setting": "[1]", "result": "1.8 ± 0.4", "unit": "µM"}]}
{"molecule": "SLLGRMKGA", "values": [{"measurement": "IC50", "setting": "[1]", "result": "2.4 ± 0.2", "unit": "µM"}]}
{"molecule": "C-terminally truncated HBV core antigen aa3-148: C-terminally truncated HBV core antigen expressed in E.coli (protein) IDPYKEFGATVELLSFLPSDFFPSVRDLLDTASALYREALESPEHCSPHHTALRQAILCWGELMTLATWVGVNLEDPASRDLVVSYVNTNMGLKFRQLLWFHISCLTFGRETVIEYLVSFGVWIRTPPAYRPPNAPILSTLPETTV", "values": [{"measurement": "stability of protein preparation on storage", "setting": "[3]", "result": "stable in this form for at least six months"}]}
